The target in one assay is T1, MOP (μ-opioid receptor) (Homo sapiens, UniProt P35372).
T1 construct: gene OPRM1; full-length receptor stably expressed in CHO-K1 cells (ChanTest)
Kind of assay: TR-FRET cAMP assay (LANCE Ultra), inhibition of forskolin-stimulated cAMP. It is filed as cell-based. The source says:
TR-FRET cAMP assay (LANCE Ultra), inhibition of forskolin-stimulated cAMP on MOP (μ-opioid receptor)
For orientation: Time-resolved FRET reads energy transfer from a long-lived donor to a nearby acceptor.

The target in the next assay is T2, DOP (δ-opioid receptor) (Homo sapiens, UniProt P41143).
T2 construct: gene OPRD1; full-length receptor stably expressed in CHO-K1 cells (ChanTest)
T2 sequence (P41143 whole entry): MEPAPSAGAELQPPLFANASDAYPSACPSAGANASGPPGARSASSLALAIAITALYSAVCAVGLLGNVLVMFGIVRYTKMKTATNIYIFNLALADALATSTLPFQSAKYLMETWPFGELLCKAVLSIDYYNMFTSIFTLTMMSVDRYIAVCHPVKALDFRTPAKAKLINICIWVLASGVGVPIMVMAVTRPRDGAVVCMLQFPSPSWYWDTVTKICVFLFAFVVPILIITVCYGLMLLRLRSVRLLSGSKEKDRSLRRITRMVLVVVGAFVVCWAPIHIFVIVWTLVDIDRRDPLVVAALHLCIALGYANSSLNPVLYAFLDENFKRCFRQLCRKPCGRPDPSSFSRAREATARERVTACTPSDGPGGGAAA
The assay is described as above. It is filed as cell-based. The source says: TR-FRET cAMP assay (LANCE Ultra), inhibition of forskolin-stimulated cAMP on DOP (δ-opioid receptor)

Each structure is given as a SMILES string.

T1 sequence (P35372 whole entry): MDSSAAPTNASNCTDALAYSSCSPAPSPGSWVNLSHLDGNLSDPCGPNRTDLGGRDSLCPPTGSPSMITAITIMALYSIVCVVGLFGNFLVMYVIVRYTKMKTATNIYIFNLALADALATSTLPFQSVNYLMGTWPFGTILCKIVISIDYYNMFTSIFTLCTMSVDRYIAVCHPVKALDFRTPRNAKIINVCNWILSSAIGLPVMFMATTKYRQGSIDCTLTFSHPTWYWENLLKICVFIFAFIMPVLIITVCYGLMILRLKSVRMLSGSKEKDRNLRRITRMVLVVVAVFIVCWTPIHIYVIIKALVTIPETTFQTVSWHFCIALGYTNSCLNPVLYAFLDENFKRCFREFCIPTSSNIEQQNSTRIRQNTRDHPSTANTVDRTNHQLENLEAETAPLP

The term EC50 denotes the concentration needed to bring the measured effect to its halfway point. Take `CN(C(=O)/C=C/c1ccoc1)[C@@H]1CC[C@@]2(O)[C@H]3Cc4ccc(O)c5c4[C@@]2(CCN3CC2CC2)[C@H]1O5` [Nalfurafine]: the EC50 at MOP (μ-opioid receptor) amounted to 0.0078 µM; at DOP (δ-opioid receptor) it was 0.132 µM.
